Measurements: patent publication US4342700A, “Oxidation-reduction reagents for a wet desulfurization process and a process for preparing same” (Mitsui Toatsu Chemicals, Inc., priority 1978, dated 1982)

Experiments:
[1] = Test for absorbing hydrogen sulfide according to the Stretford process (wet desulfurization)
From the text: In view of the solubility and oxidation-reduction characteristics above described, the anthraquinone compounds of the general formulas (I) and (II) are expected to exert an equivalent performance to anthraquinone-2,7-disulfonate as an oxidation-reduction reagent used for the Stretford process. […] The results of the test are given in Examples 11-17. The compounds of the general formulas (I) and (II) exerted in the Stretford process an equivalent desulfurization performance to anthraquinone-2,7-disulfonates. In other words, these anthraquinone compounds are quite equivalent to or somewhat better than anthraquinone-2,7-disulfonate in elimination rate of hydrogen sulfide (desulfurization ratio), a conversion rate of the absorbed hydrogen sulfide to elemental sulfur and a concentration of the residual hydrogen sulfide in the refined gas.
(§1) An absorption column was prepared by charging a glass tube (with a jacket) of 10 cm in inner diameter and 100 cm in length with a basket type filler of polypropylene (Tellerette S available from Nittetsu Kakoki KK, Japan) with a diameter of 1 cm up to a height of 95 cm. A hydrogen sulfide-containing gas prepared by mixing a gas composed of 6% carbon dioxide and 94% nitrogen with hydrogen sulfide in an amount of 5 g/Nm^2 was introduced at a flow rate of 230 l/hr. into the absorption column from the bottom thereof. On the other hand, an alkaline aqueous solution containing 0.03 mol/l of sodium metavanadate and 0.005 mol/l of sodium 2-carboxyanthraquinonemonosulfonate, which had been adjusted to have a pH value of 9 by addition of sodium carbonate and was kept at 40° C. was sprayed at a rate of 4.6 l/hr. into the absorption column from the top thereof whereby the hydrogen sulfide-containing gas was brought in the column into contact with the alkaline aqueous solution.
A gas/liquid ratio in this case was 0.02. From the lower part of the absorption column, the liquid was discharged and conveyed into a regeneration column made of a glass tube (with a jacket) of 10 cm in inner diameter and 100 cm in length where elementary sulfur was completely precipitated from the liquid by blowing air thereinto. A residence time of the liquid in the regeneration column was 20 minutes.
as §1, with “lenght” for “length”, “S)” for “S available from Nittetsu Kakoki KK, Japan)”, “g/Nm^3” for “g/Nm^2”, “2-phenoxyanthraquinonetrisulfonate,” for “2-carboxyanthraquinonemonosulfonate,”, “solution. A gas/liquid ratio in this case was 0.02. From the lower part of the absorption column, the liquid was discharged and conveyed into a regeneration column made of a glass tube (with a jacket) of 10 cm in inner diameter and 100 cm in length where elementary sulfur was completely precipitated from the liquid by blowing air thereinto. A residence time of the liquid in the regeneration column was 20 minutes.” for “solution.”
An absorption column was prepared by charging a glass tube (with a jacket) of 10 cm in inner diameter and 100 cm in length with a basket type filler of polypropylene (Tellerett S) with a diameter of 1 cm up to a height of 95 cm. […]

[2] = basic aqueous solution used in the Stretford process; background statement; cited from earlier work
[3] = Time required for oxidation by air to regenerate the quinone form; assay type: physicochemical; conditions: 38° C., leucoanthraquinonesulfonate 0.04 mol/l, NaOH 0.08 mol/l
Protocol: (§2) Easiness in oxidation-reduction of these compounds is evaluated by their standard oxidation-reduction potential and their oxidation and reduction rates.
**Air was absorbed at 38° C. in an aqueous solution containing a
given leucoanthraquinonesulfonate (0.04 mol/l) and sodium hydroxide (0.08
mol/l) under agitation whereby the time required for finishing the
airabsorption was measured.

[4] = Solubility (g/l, 25° C.) in alkaline inorganic salt solutions and water; conditions: for Solubility: 25° C.
[5] = Standard oxidation-reduction potential Eo; assay type: physicochemical; conditions: for Standard oxidation-reduction potential Eo: 25° C.; for oxidation-reduction characteristics compared with anthraquinone-2,7-disulfonate (in words): from Table 2 (reaction rates and Eo)
Protocol: as §2

[6] = Time required for being reduced to the leuco form by sodium vanadite; assay type: physicochemical; conditions: 38° C., nitrogen, sodium vanadite 0.02 mol/l, anthraquinonesulfonate 0.04 mol/l, NaOH 0.04 mol/l
Protocol: as §2

[7] = pH of solution in pure water; assay type: physicochemical
[8] = Example 17: same manner as described in Example 13 (so in the source)
[9] = Examples 11-12: 0.005 mol/l reagent, 0.03 mol/l sodium metavanadate, pH 9, 40° C., H2S gas 230 l/hr, liquid 4.6 l/hr
[10] = Examples 13-15: 0.005 mol/l reagent, 0.03 mol/l sodium metavanadate, pH 9, 40° C., H2S gas 5 g/Nm^3, 230 l/hr
[11] = 20g Na2 CO3 + 300g Na2 S2 O3 in 1 liter of water
[12] = 20g Na2 CO3 + 300g NaSCN in 1 liter of water
[13] = Mixed aqueous solution: 20 g/l sodium carbonate, 50 g/l sodium sulfate, 100 g/l sodium thiosulfate, 150 g/l sodium thiocyanate
[14] = practical use, Stretford process

Molecule	desulfurization ratio [1, 9]	Time required for oxidation to regenerate the quinone form [3]	desulfurization ratio [1, 10]	Solubility [4, 11]	Solubility [4, 12]	Solubility [4, 13]	Solubility ([4]; Water)	Standard oxidation-reduction potential Eo [5]	Time required for reduction to the leuco form [6]	other results
sodium 2-carboxyanthraquinonetetrasulfonate										desulfurization ratio [1, 8]: at least 99.7%
potassium 2-carboxyanthraquinonemonosulfonate	at least 99.7%									
O=C1c2ccc(S(=O)(=O)O)cc2C(=O)c2ccc(S(=O)(=O)O)cc21 [anthraquinone-2,6-disulfonic acid]										solubility (in words) [2]: very poor solubility
sodium 2-phenoxyanthraquinonetrisulfonate		15 min	≥ 99.7%	> 200 g/L	> 100 g/L	> 100 g/L	> 400 g/L	0.27 V	5 min	quantity of sulfur recovered, % of hydrogen sulfide contained in the feed gas ([1]; Example 13: 0.005 mol/l reagent, 0.03 mol/l sodium metavanadate, pH 9, 40° C.): 97%; desulfurization ratio [1, 8]: at least 99.7%; oxidation-reduction characteristics compared with anthraquinone-2,7-disulfonate (in words) [5]: very similar in oxidation-reduction characteristics to sodium anthraquinone-2,7-disulfonate
O=C1c2ccccc2C(=O)c2cc(Oc3ccc(S(=O)(=O)O)cc3S(=O)(=O)O)ccc21 [sodium 2-phenoxyanthraquinone-2',4'-disulfonate, reference compound]										suitability for use in the Stretford process (in words) ([1]; Stretford process): unsuited for use in the Stretford process; capturing rate for hydrogen sulfide (in words) [1, 14]: inferior; oxidation efficiency of hydrogen sulfide to elemental sulfur (in words) [1, 14]: inferior; standard oxidation-reduction potential ([5]; temperature not given): 0.21 V
O=C1c2ccc(S(=O)(=O)[O-])cc2C(=O)c2ccc(S(=O)(=O)[O-])cc21.[Na+].[Na+] [reference compound]				< 1 g/L	< 1 g/L	< 1 g/L	39 g/L			
ammonium 2-phenoxyanthraquinonetetrasulfonate			at least 99.7%							
O=C1c2ccc(S(=O)(=O)[O-])cc2C(=O)c2cc(S(=O)(=O)[O-])ccc21.[Na+].[Na+] [reference compound]	99.6%	15 min		10 g/L	8 g/L	5 g/L	305 g/L	0.29 V	5 min	
potassium 2-phenoxyanthraquinonetrisulfonate			at least 99.7%							
Sodium 2-phenoxyanthraquinonetetrasulfonate		15 min	at least 99.7%	> 300 g/L	> 200 g/L	> 200 g/L	> 600 g/L	0.28 V	5 min	oxidation-reduction characteristics compared with anthraquinone-2,7-disulfonate (in words) [5]: very similar in oxidation-reduction characteristics to sodium anthraquinone-2,7-disulfonate
ammonium 2-carboxyanthraquinonemonosulfonate	at least 99.7%									
potassium 2-phenoxyanthraquinonetetrasulfonate			at least 99.7%							
sodium 2-carboxyanthraquinonemonosulfonate	≥ 99.7%	15 min		38 g/L	25 g/L	15 g/L	12 g/L	0.29 V	5 min	pH of the solution [7]: 3-4; quantity of sulfur recovered, % of hydrogen sulfide contained in the feed gas ([1]; Example 11: 0.005 mol/l reagent, 0.03 mol/l sodium metavanadate, pH 9, 40° C.): 97%; solubility as disodium salt ([4]; neutral or weakly alkaline solution, as disodium salt): ≥ 200 g/L; oxidation-reduction characteristics compared with anthraquinone-2,7-disulfonate (in words) [5]: very similar in oxidation-reduction characteristics to sodium anthraquinone-2,7-disulfonate
